Publication PMC7531004, “Discovery of gramicidin A analogues with altered activities by multidimensional screening of a one-bead-one-compound library” (Nature Communications, 2020)
Where a SMILES comes first, the peptide text is derived from it. [ ]: non-standard residue; d: D form. The star is where a group is joined. NHCH2CH2OH = OCCN*; For = O=C*

Assays:
[1] = H+/Na+ transport assay of bead-derived peptides (one-point); format: biochemical; set-up: key: relative activity; mean of two control wells = 1.00; details: bead-derived peptide solution, EYPC/EYPG LUVs;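 also: relative to parent gramicidin A activity set to 1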
Outline: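 Pyranine (1.0 mM)-loaded LUVs containing egg yolk phosphatidylglycerol were prepared by film hydration, sonication and extrusion, then mixed with diluted bead-derived peptide in 96-well format and vortexed 30 min at room temperature. Fluorescence was normalized between untreated LUVs (0%) and Triton X-100 lysis (100%).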

[2] = system: P388 mouse leukemia cells; details: 92 h
Outline: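 P388 cells at 1 × 10^4 cells/mL (final) were exposed to library peptides (stocks diluted 250-fold in RPMI1640/10% FBS) for 92 h at 37 °C, 5% CO2. Viable cells were counted by WST-1/1-methoxy PMS (4 h), absorbance 415 nm, and expressed as cell viability (%).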

[3] = system: Streptococcus pyogenes SSI-9; test: Antibacterial activity assay of bead-derived peptides (three concentrations); format: cell-based; set-up: key: +++: inhibition by the 640-fold diluted peptide solution; ++: inhibition by the 160-fold diluted solution; +: inhibition by the 40-fold diluted solution; -: no inhibition; details: S. pyogenes, bead-derived peptide solution, three concentrations
Outline: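 Library peptide stock applied undiluted, 4-fold and 16-fold diluted in DMSO to S. pyogenes SSI-9 (2 × 10^5 CFU) in cation-adjusted Mueller Hinton broth with 5% laked horse blood. After 18 h at 37 °C, growth judged by visible cell precipitation.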

For `CC(C)C[C@@H](NC(=O)[C@H](C)NC(=O)[C@H](NC(=O)[C@H](C)NC(=O)CNC(=O)[C@@H](NC=O)C(C)C)[C@H](C)O)C(=O)N[C@H](C(=O)N[C@H](CC(C)C)C(=O)N[C@@H](Cc1c[nH]c2ccccc12)C(=O)N[C@@H](C(=O)N[C@@H](Cc1c[nH]c2ccccc12)C(=O)N[C@@H](C(=O)N[C@@H](Cc1c[nH]c2ccccc12)C(=O)N[C@H](CC(C)C)C(=O)N[C@@H](Cc1c[nH]c2ccccc12)C(=O)NCCO)C(C)C)C(C)C)C(C)C` [compound 2242] (For-VGA[dT]A[dL]V[dL]W[dV]W[dV]W[dL]W-NHCH2CH2OH), which “H+/Na+ transport activity normalized against the value of 1 (1.00)” value (shortened to “H+/Na+ transport activity normalized”) [1] is on record?
Its value is 1.15.

What about the cell viability/% [2] of the same compound?
The cell viability/% was 100.0%.

And the antibacterial activity [3]?
Its antibacterial activity is “-”.

With `CC(C)C[C@@H](NC(=O)[C@H](C)NC(=O)[C@H](NC(=O)[C@H](C)NC(=O)CNC(=O)[C@@H](NC=O)C(C)C)C(C)C)C(=O)N[C@H](C(=O)N[C@H](CC(C)C)C(=O)N[C@@H](Cc1c[nH]c2ccccc12)C(=O)N[C@H](CC(C)C)C(=O)N[C@@H](Cc1c[nH]c2ccccc12)C(=O)N[C@@H](C(=O)N[C@@H](Cc1c[nH]c2ccccc12)C(=O)N[C@H](CC(C)C)C(=O)N[C@@H](Cc1c[nH]c2ccccc12)C(=O)NCCO)[C@H](C)O)C(C)C` [compound 4209] (For-VGA[dV]A[dL]V[dL]W[dL]W[dT]W[dL]W-NHCH2CH2OH) as the compound, how does the “H+/Na+ transport activity normalized” value [1] read?
The value was 1.33.

What about the cell viability/% [2] of the same compound?
The cell viability/% was 96.2%.

And the antibacterial activity [3]?
The antibacterial activity was “-”.

Which results are given for `CNC(=O)C[C@@H](NC(=O)[C@@H](NC(=O)[C@@H](CC(C)C)NC(=O)[C@H](C)NC(=O)[C@H](NC(=O)[C@H](C)NC(=O)CNC(=O)[C@@H](NC=O)C(C)C)C(C)C)C(C)C)C(=O)N[C@@H](Cc1c[nH]c2ccccc12)C(=O)N[C@@H](C(=O)N[C@@H](Cc1c[nH]c2ccccc12)C(=O)N[C@H](CC(C)C)C(=O)N[C@@H](Cc1c[nH]c2ccccc12)C(=O)N[C@H](CC(C)C)C(=O)N[C@@H](Cc1c[nH]c2ccccc12)C(=O)NCCO)C(C)C` [compound 12975] (For-VGA[dV]A[dL]V[dD](NHMe)W[dV]W[dL]W[dL]W-NHCH2CH2OH)?
H+/Na+ transport activity normalized against the value of 1 (1.00) [1]: 1.43; cell viability/% [2]: 86.0%; antibacterial activity [3]: -

What does the source list for `CNC(=O)C[C@@H](NC(=O)[C@@H](NC(=O)[C@H](NC(=O)[C@H](C)NC(=O)[C@H](NC(=O)[C@H](C)NC(=O)CNC(=O)[C@@H](NC=O)C(C)C)C(C)C)C(C)C)C(C)C)C(=O)N[C@@H](Cc1c[nH]c2ccccc12)C(=O)N[C@H](CC(C)C)C(=O)N[C@@H](Cc1c[nH]c2ccccc12)C(=O)N[C@H](CC(C)C)C(=O)N[C@@H](Cc1c[nH]c2ccccc12)C(=O)N[C@H](CC(C)C)C(=O)N[C@@H](Cc1c[nH]c2ccccc12)C(=O)NCCO` [compound 8982] (For-VGA[dV]A[dV]V[dD](NHMe)W[dL]W[dL]W[dL]W-NHCH2CH2OH)?
H+/Na+ transport activity normalized against the value of 1 (1.00) [1]: 1.21; cell viability/% [2]: 49.1%; antibacterial activity [3]: -

With `CC(C)C[C@@H](NC(=O)[C@H](C)NC(=O)CNC(=O)[C@@H](NC=O)C(C)C)C(=O)N[C@@H](C)C(=O)N[C@H](CC(C)C)C(=O)N[C@H](C(=O)N[C@H](CC(C)C)C(=O)N[C@@H](Cc1c[nH]c2ccccc12)C(=O)N[C@H](CC(C)C)C(=O)N[C@@H](Cc1c[nH]c2ccccc12)C(=O)N[C@@H](C(=O)N[C@@H](Cc1c[nH]c2ccccc12)C(=O)N[C@H](CC(C)C)C(=O)N[C@@H](Cc1c[nH]c2ccccc12)C(=O)NCCO)[C@H](C)O)C(C)C` [compound 2283] (For-VGA[dL]A[dL]V[dL]W[dL]W[dT]W[dL]W-NHCH2CH2OH) as the compound, how does the “H+/Na+ transport activity normalized” value [1] read?
Its value is 1.07.

What about the cell viability/% [2] of the same compound?
Its cell viability/% is 100.0%.

What about the antibacterial activity [3] of the same compound?
Its antibacterial activity is “-”.

With `CC(C)C[C@@H](NC(=O)[C@H](C)NC(=O)[C@H](NC(=O)[C@H](C)NC(=O)CNC(=O)[C@@H](NC=O)C(C)C)[C@H](C)O)C(=O)N[C@H](C(=O)N[C@@H](C(=O)N[C@@H](Cc1c[nH]c2ccccc12)C(=O)N[C@H](CC(C)C)C(=O)N[C@@H](Cc1c[nH]c2ccccc12)C(=O)N[C@H](CC(C)C)C(=O)N[C@@H](Cc1c[nH]c2ccccc12)C(=O)N[C@@H](C(=O)N[C@@H](Cc1c[nH]c2ccccc12)C(=O)NCCO)C(C)C)C(C)C)C(C)C` [compound 5522] (For-VGA[dT]A[dL]V[dV]W[dL]W[dL]W[dV]W-NHCH2CH2OH) as the compound, how does the “H+/Na+ transport activity normalized” value [1] read?
Its value is 1.27.

And the cell viability/% [2]?
Its cell viability/% is 100.0%.

And the antibacterial activity [3]?
The antibacterial activity was “-”.

Which “H+/Na+ transport activity normalized” value [1] does the source give for `CC(C)C[C@@H](NC(=O)[C@H](C)NC(=O)[C@H](NC(=O)[C@H](C)NC(=O)CNC(=O)[C@@H](NC=O)C(C)C)C(C)C)C(=O)N[C@H](C(=O)N[C@@H](C(=O)N[C@@H](Cc1c[nH]c2ccccc12)C(=O)N[C@@H](C(=O)N[C@@H](Cc1c[nH]c2ccccc12)C(=O)N[C@H](CC(C)C)C(=O)N[C@@H](Cc1c[nH]c2ccccc12)C(=O)N[C@@H](C(=O)N[C@@H](Cc1c[nH]c2ccccc12)C(=O)NCCO)C(C)C)C(C)C)[C@H](C)O)C(C)C` [compound 4710] (For-VGA[dV]A[dL]V[dT]W[dV]W[dL]W[dV]W-NHCH2CH2OH) here?
The value was 1.06.

What about the cell viability/% [2] of the same compound?
Its cell viability/% is 100.0%.

And the antibacterial activity [3]?
The antibacterial activity was “-”.

Which results are given for `CC(C)C[C@@H](NC(=O)[C@H](Cc1c[nH]c2ccccc12)NC(=O)[C@H](NC(=O)[C@H](Cc1c[nH]c2ccccc12)NC(=O)[C@@H](CC(C)C)NC(=O)[C@H](Cc1c[nH]c2ccccc12)NC(=O)[C@H](NC(=O)[C@@H](NC(=O)[C@H](NC(=O)[C@H](C)NC(=O)[C@H](NC(=O)[C@H](C)NC(=O)CNC(=O)[C@@H](NC=O)C(C)C)C(C)C)C(C)C)C(C)C)C(C)C)C(C)C)C(=O)N[C@@H](Cc1c[nH]c2ccccc12)C(=O)NCCO` [compound 2994] (For-VGA[dV]A[dV]V[dV]W[dL]W[dV]W[dL]W-NHCH2CH2OH)?
H+/Na+ transport activity normalized against the value of 1 (1.00) [1]: 1.14; cell viability/% [2]: 6.3%; antibacterial activity [3]: ++

Which “H+/Na+ transport activity normalized” value [1] does the source give for `CC(C)C[C@@H](NC(=O)[C@H](C)NC(=O)[C@H](NC(=O)[C@H](C)NC(=O)CNC(=O)[C@@H](NC=O)C(C)C)[C@H](C)O)C(=O)N[C@H](C(=O)N[C@H](CC(C)C)C(=O)N[C@@H](Cc1c[nH]c2ccccc12)C(=O)N[C@@H](C(=O)N[C@@H](Cc1c[nH]c2ccccc12)C(=O)N[C@H](CC(C)C)C(=O)N[C@@H](Cc1c[nH]c2ccccc12)C(=O)N[C@H](CC(C)C)C(=O)N[C@@H](Cc1c[nH]c2ccccc12)C(=O)NCCO)C(C)C)C(C)C` [compound 7890] (For-VGA[dT]A[dL]V[dL]W[dV]W[dL]W[dL]W-NHCH2CH2OH) here?
Its value is 1.11.

What about the cell viability/% [2] of the same compound?
Its cell viability/% is 100.0%.

What about the antibacterial activity [3] of the same compound?
The antibacterial activity was “-”.

Which “H+/Na+ transport activity normalized” value [1] does the source give for `CC(C)C[C@@H](NC(=O)[C@H](Cc1c[nH]c2ccccc12)NC(=O)[C@H](NC(=O)[C@@H](NC(=O)[C@H](NC(=O)[C@H](C)NC(=O)[C@H](NC(=O)[C@H](C)NC(=O)CNC(=O)[C@@H](NC=O)C(C)C)C(C)C)C(C)C)C(C)C)[C@H](C)O)C(=O)N[C@@H](Cc1c[nH]c2ccccc12)C(=O)N[C@@H](C(=O)N[C@@H](Cc1c[nH]c2ccccc12)C(=O)N[C@@H](C(=O)N[C@@H](Cc1c[nH]c2ccccc12)C(=O)NCCO)C(C)C)C(C)C` [compound 9910] (For-VGA[dV]A[dV]V[dT]W[dL]W[dV]W[dV]W-NHCH2CH2OH) here?
Its value is 1.07.

What about the cell viability/% [2] of the same compound?
The cell viability/% was 100.0%.

And the antibacterial activity [3]?
The antibacterial activity was “-”.
